Like-named read-outs stand apart in the source and are kept apart here.
How the values were obtained:
PIM3 = PIM3 (Homo sapiens (Human), UniProt Q86V86); assay: Pim kinase binding activity, Caliper LC3000 microfluidic peptide phosphorylation assay, PIM3; format: biochemical; conditions: 10 μM ATP, 90 min, room temperature; read-out: PIM3 LC3K (KI)
Procedure, shortened: (§1)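 Pim-specific fluorescent peptide phosphorylated in 10 mM HEPES pH 7.2, 10 mM MgCl2, 0.01% Tween 20, 2 mM DTT for 90 min at room temperature, then stopped with EDTA. Product and substrate separated by microfluidic mobility shift; Ki derived from substrate conversion.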

PIM2 = PIM2 (Homo sapiens (Human), UniProt Q9P1W9); assay: Pim kinase binding activity, Caliper LC3000 microfluidic peptide phosphorylation assay, PIM2; format: biochemical; conditions: 10 μM ATP, 90 min, room temperature; read-out: PIM2 LC3K (KI)
Sequence of PIM2 (Q9P1W9 whole entry): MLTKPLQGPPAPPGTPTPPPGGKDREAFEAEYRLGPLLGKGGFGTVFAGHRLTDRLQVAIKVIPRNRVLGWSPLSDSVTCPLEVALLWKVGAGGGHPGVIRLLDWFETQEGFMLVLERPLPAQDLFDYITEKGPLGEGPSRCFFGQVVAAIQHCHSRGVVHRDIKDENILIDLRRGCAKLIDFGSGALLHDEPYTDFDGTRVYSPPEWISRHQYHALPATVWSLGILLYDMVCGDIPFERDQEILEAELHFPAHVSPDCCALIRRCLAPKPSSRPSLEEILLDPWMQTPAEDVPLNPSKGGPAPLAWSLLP
Procedure, shortened: as §1

BaF3 PIM1 cells = assay: In vitro cell proliferation potency assay (Cell Titer Glo), BaF3 PIM1 cells; format: cell-based, murine; conditions: read-out: Prolif BaF3_PIM 1 (IC50)
Protocol: BaF3 parental line was obtained from the DSMZ repository. BaF3 lines transfected with PIM1 or PIM2 were generated. Mouse IL-3 was purchased from R&D Systems. G418 was purchased from Clontech. Media for BaF3 parental line contained RPMI, 10% FBS, 2 mM L-Glutamine, 2 ng/mL mIL-3. Media for BaF3 PIM1 & 2 lines contained RPMI, 10% FBS, 2 mM L-Glutamine, […]. Media for MM1.S (multiple myeloma cells) line contained RPMI, 10% FBS, 2 mM L-Glutamine.
BaF3, a murine interleukin-3 dependent pro-B cell line, parental cells, BaF3 PIM1 cells, BaF3 PIM2 cells, and MM1.S (multiple myeloma) cells were seeded at 2 k/well, 5 k/well, 5 k/well, and 10 k/well respectively, in a 384-well plate, at 45 μL/well. Test compound was added at 5 μL/well. BaF3 cells (parental and transfected) were incubated overnight, while MM1.S cells were incubated for 72 hours at 37° C., 5% CO2. CELL TITER GLO® Reagent (Promega) was added at 50 μL/well, the plates were incubated for 30 minutes, and their luminescence read on an HT Analyst. IC50/EC50 values for the test compound were calculated.

PIM1 = PIM1 (Homo sapiens (Human), UniProt P11309); assay: biochemical; format: biochemical; conditions: 10 μM ATP, 90 min, room temperature; read-out: PIM1 LC3K (KI)
Sequence of PIM1 (P11309 whole entry): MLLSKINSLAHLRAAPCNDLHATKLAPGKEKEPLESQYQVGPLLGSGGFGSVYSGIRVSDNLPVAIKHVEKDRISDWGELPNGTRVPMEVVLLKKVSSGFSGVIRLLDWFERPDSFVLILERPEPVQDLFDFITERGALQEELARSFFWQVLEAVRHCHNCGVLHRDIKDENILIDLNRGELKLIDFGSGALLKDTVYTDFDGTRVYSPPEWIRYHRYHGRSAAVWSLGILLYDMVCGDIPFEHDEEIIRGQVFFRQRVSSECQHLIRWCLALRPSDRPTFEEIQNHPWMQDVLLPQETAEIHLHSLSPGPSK
Procedure, shortened: as §1

[1] = Mus musculus, BaF3, BaF3 cells transfected with PIM1, incubated overnight

CCn1cc(-c2cc3c(cn2)cnn3-c2cccc(N3CCC[C@H](N)C3)n2)cn1 [Compound 133, (3S)-1-[6-[6-(1-ethylpyrazol-4-yl)pyrazolo[4,3-c]pyridin-1-yl]-2-pyridyl]piperidin-3-amine]
Ki (PIM3): 0.155 nM | Ki (PIM2): 4.56 nM | IC50 (BaF3 PIM1 cells; [1]): 3000 nM | Ki (PIM1): 0.867 nM

CCc1cncc(-c2cc3c(cn2)cnn3-c2cccc(N3CCNCC(O)C3)n2)n1 (centres unmarked) [Compound 172, 1-[6-[6-(6-ethylpyrazin-2-yl)pyrazolo[4,3-c]pyridin-1-yl]-2-pyridyl]-1 4-diazepan-6-ol]
Ki (PIM3): 0.048 nM | Ki (PIM2): 1.47 nM | IC50 (BaF3 PIM1 cells; [1]): 111 nM | Ki (PIM1): 0.034 nM

CC(C)(C)n1cc(-c2cc3c(cn2)cnn3-c2cccc(N3CCCNCC3)n2)cn1 [Compound 145, 1-(6-(1,4-Diazepan-1-yl)pyridin-2-yl)-6-(1-tert-butyl-1H-pyrazol-4-yl)-1H-pyrazolo[4,3-c]pyridine]
Ki (PIM3): 0.636 nM | Ki (PIM2): 10.5 nM | IC50 (BaF3 PIM1 cells; [1]): 2500 nM | Ki (PIM1): 0.362 nM

c1cc(N2CCNCC2)nc(-n2ncc3cnc(-c4cncc(C5CC5)n4)cc32)c1 [Compound 165, 6-(6-cyclopropylpyrazin-2-yl)-1-(6-piperazin-1-yl-2-pyridyl)pyrazolo[4,3-c]pyridine]
Ki (PIM3): 0.174 nM | Ki (PIM2): 1.14 nM | IC50 (BaF3 PIM1 cells; [1]): 139 nM | Ki (PIM1): 0.063 nM

Cc1cncc(-c2cc3c(cn2)cnn3-c2cccc(N3CCNC(C)C3)n2)n1 (single isomer, unassigned) [Compound 193, 1-[6-(3-methylpiperazin-1-yl)-2-pyridyl]-6-(6-methylpyrazin-2-yl)pyrazolo[4,3-c]pyridine]
Ki (PIM3): 0.035 nM | Ki (PIM2): 0.596 nM | IC50 (BaF3 PIM1 cells; BaF3 cells transfected with PIM1, incubated overnight): 1200 nM | Ki (PIM1): 0.046 nM

Cc1cncc(-c2cc3c(cn2)cnn3-c2ccc(C3CC3)c(N3CCC[C@H](N)C3)n2)n1 [Compound 181, (S)-1-(3-cyclopropyl-6-(6-(6-methylpyrazin-2-yl)-1H-pyrazolo[4,3-c]pyridin-1-yl)pyridin-2-yl)piperidin-3-amine]
Ki (PIM3): 0.019 nM | Ki (PIM2): 0.077 nM | IC50 (BaF3 PIM1 cells; [1]): 214 nM | Ki (PIM1): 0.014 nM

COc1ccc(-n2ncc3cnc(-c4cncc(C)n4)cc32)nc1N1CCNCC(O)C1 (centres unmarked) [Compound 207, 1-(3-methoxy-6-(6-(6-methylpyrazin-2-yl)-1H-pyrazolo[4,3-c]pyridin-1-yl)pyridin-2-yl)-1,4-diazepan-6-ol]
Ki (PIM3): 0.093 nM | Ki (PIM2): 3.67 nM | IC50 (BaF3 PIM1 cells; [1]): 1500 nM | Ki (PIM1): 0.182 nM

Cc1cncc(-c2cc3c(cn2)cnn3-c2cccc(N3CCC(N)CC3)n2)n1 [Compound 194, 1-[6-[6-(6-methylpyrazin-2-yl)pyrazolo[4,3-c]pyridin-1-yl]-2-pyridyl]piperidin-4-amine]
Ki (PIM3): 0.125 nM | Ki (PIM2): 3.12 nM | IC50 (BaF3 PIM1 cells; [1]): 1500 nM | Ki (PIM1): 0.243 nM

CCc1cncc(-c2cc3c(cn2)cnn3-c2cccc(N3CCNCC3)n2)c1 [Compound 104, 6-(5-ethylpyridin-3-yl)-1-(6-(piperazin-1-yl)pyridin-2-yl)-1H-pyrazolo[4,3-c]pyridine]
Ki (PIM3): 0.077 nM | IC50 (BaF3 PIM1 cells; [1]): 1500 nM | Ki (PIM1): 0.119 nM

OCCn1cc(-c2cc3c(cn2)cnn3-c2cccc(N3CCCNCC3)n2)cn1 [Compound 152, 2-(4-(1-(6-(1,4-Diazepan-1-yl)pyridin-2-yl)-1H-pyrazolo[4,3-c]pyridin-6-yl)-1H-pyrazol-1-yl)ethanol]
Ki (PIM3): 0.134 nM | Ki (PIM2): 5.38 nM | IC50 (BaF3 PIM1 cells; [1]): 1500 nM | Ki (PIM1): 0.215 nM

N[C@@H]1CCCN(c2cccc(-n3ncc4cnc(-c5cncs5)cc43)n2)C1 [Compound 110, (3R)-1-[6-(6-thiazol-5-ylpyrazolo[4,3-c]pyridin-1-yl)-2-pyridyl]piperidin-3-amine]
Ki (PIM3): 0.37 nM | Ki (PIM2): 4.5 nM | IC50 (BaF3 PIM1 cells; [1]): 1700 nM | Ki (PIM1): 0.504 nM

O[C@@H]1CNCCN(c2cccc(-n3ncc4cnc(-c5cnn(CC(F)(F)F)c5)cc43)n2)C1 [Compound 188, (R)-1-(6-(6-(1-(2,2,2-Trifluoroethyl)-1H-pyrazol-4-yl)-1H-pyrazolo[4,3-c]pyridin-1-yl)-pyridin-2-yl)-1,4-diazepan-6-ol]
Ki (PIM3): 0.611 nM | Ki (PIM2): 4.64 nM | IC50 (BaF3 PIM1 cells; [1]): 418 nM | Ki (PIM1): 0.173 nM

Cc1cncc(-c2cc3c(cn2)cnn3-c2cccc(NC3CCNCC3)n2)n1 [Compound 190, 6-[6-(6-methylpyrazin-2-yl)pyrazolo[4,3-c]pyridin-1-yl]-N-(4-piperidyl)pyridin-2-amine]
Ki (PIM3): 0.023 nM | Ki (PIM2): 1.28 nM | IC50 (BaF3 PIM1 cells; [1]): 235 nM | Ki (PIM1): 0.06 nM

Cc1cncc(-c2cc3c(cn2)cnn3-c2cccc(N3CCC[C@H](O)C3)n2)n1 [Compound 299, (S)-1-(6-(6-(6-methylpyrazin-2-yl)-1H-pyrazolo[4,3-c]pyridin-1-yl)pyridin-2-yl)piperidin-3-ol]
Ki (PIM3): 0.248 nM | Ki (PIM2): 4.17 nM | IC50 (BaF3 PIM1 cells; [1]): 1600 nM | Ki (PIM1): 0.419 nM

Cc1cncc(-c2cc3c(cn2)cnn3-c2ccc(C3CC3)c(N3CCCNCC3)n2)n1 [Compound 197, 1-(5-cyclopropyl-6-(1,4-diazepan-1-yl)pyridin-2-yl)-6-(6-methylpyrazin-2-yl)-1H-pyrazolo[4,3-c]pyridine]
Ki (PIM3): 0.046 nM | Ki (PIM2): 1.22 nM | IC50 (BaF3 PIM1 cells; [1]): 2200 nM | Ki (PIM1): 0.055 nM

c1cc(N2CCCNCC2)nc(-n2ncc3cnc(-c4cnn(CC5COC5)c4)cc32)c1 [Compound 158, 1-(6-(1,4-Diazepan-1-yl)pyridin-2-yl)-6-(1-(oxetan-3-ylmethyl)-1H-pyrazol-4-yl)-1H-pyrazolo[4,3-c]pyridine]
Ki (PIM3): 284 nM | Ki (PIM2): 2900 nM | Ki (PIM1): 287 nM

Cc1cncc(-c2cc3c(cn2)cnn3-c2cccc(N3CC(O)C(O)C3)n2)n1 (centres unmarked) [Compound 232, 1-[6-[6-(6-methylpyrazin-2-yl)pyrazolo[4,3-c]pyridin-1-yl]-2-pyridyl]pyrrolidine-3 4-diol]
Ki (PIM3): 0.83 nM | Ki (PIM2): 21.1 nM | Ki (PIM1): 1.19 nM

CCn1cc(-c2cc3c(cn2)cnn3-c2cccc(N3CC[C@@H](N)C3)n2)cn1 [Compound 136, (R)-1-(6-(6-(1-ethyl-1H-pyrazol-4-yl)-1H-pyrazolo[4,3-c]pyridin-1-yl)pyridin-2-yl)pyrrolidin-3-amine]
Ki (PIM3): 0.615 nM | Ki (PIM2): 17.3 nM | Ki (PIM1): 2.05 nM

Cn1cc(-c2cc3c(cn2)cnn3-c2cn(C)c(=O)c(N3CCC[C@H](N)C3)n2)cn1 [Compound 242, (S)-3-(3-Aminopiperidin-1-yl)-1-methyl-5-(6-(1-methyl-1H-pyrazol-4-yl)-1H-pyrazolo[4,3-c]pyridin-1-yl)pyrazin-2(1H)-one]
Ki (PIM3): 42.2 nM | Ki (PIM2): 1600 nM | Ki (PIM1): 128 nM

Cc1cncc(-c2cc3c(cn2)cnn3-c2cccc(C3(O)CCCNC3)n2)n1 (centres unmarked) [Compound 288, 3-(6-(6-(6-methylpyrazin-2-yl)-1H-pyrazolo[4,3-c]pyridin-1-yl)pyridin-2-yl)piperidin-3-ol]
Ki (PIM3): 0.564 nM | Ki (PIM2): 5.56 nM | Ki (PIM1): 0.918 nM

Cn1ncc(-c2cc3c(cn2)cnn3-c2ccccc2F)c1Cl [Compound 309, 6-(5-chloro-1-methyl-1H-pyrazol-4-yl)-1-(2-fluorophenyl)-1H-pyrazolo[4,3-c]pyridine]
Ki (PIM3): 944 nM | Ki (PIM2): 2200 nM | Ki (PIM1): 487 nM

N#Cc1cncc(-c2cc3c(cn2)cnn3-c2cccc(N3CCNCC3)n2)n1 [Compound 177, 6-[1-(6-piperazin-1-yl-2-pyridyl)pyrazolo[4,3-c]pyridin-6-yl]pyrazine-2-carbonitrile]
Ki (PIM3): 0.363 nM | Ki (PIM2): 16.1 nM | Ki (PIM1): 1.04 nM

NC(=O)Cn1cc(-c2cc3c(cn2)cnn3-c2cccc(N3CCCNCC3)n2)cn1 [Compound 159, 2-(4-(1-(6-(1,4-Diazepan-1-yl)pyridin-2-yl)-1H-pyrazolo[4,3-c]pyridin-6-yl)-1H-pyrazol-1-yl)acetamide]
Ki (PIM3): 0.185 nM | Ki (PIM2): 8.33 nM | Ki (PIM1): 0.283 nM

CCn1cc(-c2cc3c(cn2)cnn3-c2cncc(N3CCCNCC3)n2)cn1 [Compound 163, 1-(6-(1,4-diazepan-1-yl)pyrazin-2-yl)-6-(1-ethyl-1H-pyrazol-4-yl)-1H-pyrazolo[4,3-c]pyridine]
Ki (PIM3): 2.96 nM | Ki (PIM2): 26.6 nM | Ki (PIM1): 1.63 nM

Cn1cc(-c2cc3c(cn2)cnn3-c2cn(C)c(=O)c(N3CCNCC(O)C3)n2)cn1 (centres unmarked) [Compound 254, 3-(6-Hydroxy-1,4-diazepan-1-yl)-1-methyl-5-(6-(1-methyl-1H-pyrazol-4-yl)-1H-pyrazolo[4,3-c]pyridin-1-yl)pyrazin-2(1H)-one]
Ki (PIM3): 6.24 nM | Ki (PIM2): 718 nM | Ki (PIM1): 30.6 nM

Cc1cncc(-c2cc3c(cn2)cnn3-c2cccc(N3C[C@@H](N)CCC3=O)n2)n1 [Compound 202, (5S)-5-amino-1-[6-[6-(6-methylpyrazin-2-yl)pyrazolo[4,3-c]pyridin-1-yl]-2-pyridyl]piperidin-2-one]
Ki (PIM3): 36.4 nM | Ki (PIM2): 421 nM | Ki (PIM1): 56.4 nM
